Among the data in patent publication US20080058324A1, “Alpha-Keto Carbonyl Calpain Inhibitors” (SANTHERA PHARMACEUTICALS (SCHWEIZ) AG, priority 2004, published 2008) are IC50 and EC50 values, retold here.

One assay addresses T1, human μ-calpain (Homo sapiens, UniProt P07384).
T1 construct: purchased Calbiochem
T1 sequence (P07384 1-714): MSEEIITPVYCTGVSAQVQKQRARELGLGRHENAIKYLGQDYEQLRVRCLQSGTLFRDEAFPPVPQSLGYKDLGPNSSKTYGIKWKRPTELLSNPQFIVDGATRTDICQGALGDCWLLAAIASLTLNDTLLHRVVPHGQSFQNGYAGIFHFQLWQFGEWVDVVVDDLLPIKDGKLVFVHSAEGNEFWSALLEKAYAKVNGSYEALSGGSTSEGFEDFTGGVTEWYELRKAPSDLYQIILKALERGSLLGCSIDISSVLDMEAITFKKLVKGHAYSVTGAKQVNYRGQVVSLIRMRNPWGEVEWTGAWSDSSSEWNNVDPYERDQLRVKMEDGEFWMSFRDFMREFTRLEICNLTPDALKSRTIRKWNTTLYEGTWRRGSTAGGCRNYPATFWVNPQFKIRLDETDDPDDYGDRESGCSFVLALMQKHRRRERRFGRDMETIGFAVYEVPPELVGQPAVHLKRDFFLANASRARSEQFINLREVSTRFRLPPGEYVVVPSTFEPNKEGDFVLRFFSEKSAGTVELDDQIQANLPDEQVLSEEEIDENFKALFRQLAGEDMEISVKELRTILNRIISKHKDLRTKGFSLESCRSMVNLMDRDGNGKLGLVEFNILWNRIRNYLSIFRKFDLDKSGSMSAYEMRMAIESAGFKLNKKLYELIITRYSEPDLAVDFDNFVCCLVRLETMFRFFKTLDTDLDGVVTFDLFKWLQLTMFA
T1 sequence (P04632 1-268 partner): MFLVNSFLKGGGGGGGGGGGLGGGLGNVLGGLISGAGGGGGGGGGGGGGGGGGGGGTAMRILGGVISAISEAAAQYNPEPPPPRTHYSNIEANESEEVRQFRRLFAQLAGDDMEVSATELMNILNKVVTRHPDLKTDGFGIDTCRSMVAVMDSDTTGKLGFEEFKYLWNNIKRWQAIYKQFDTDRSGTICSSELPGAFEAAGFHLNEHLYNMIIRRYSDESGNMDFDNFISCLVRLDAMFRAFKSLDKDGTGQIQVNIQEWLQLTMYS
The assay can be described thus: Enzymatic Calpain Inhibition Assay. In kind it is biochemical. The note with it: read-out: Calp I IC50. As for the experimental part:
The Ki value was also determined in some cases. These criteria were used to measure the inhibitory effect of the compounds (I) on calpain I, calpain II and cathepsin B.
The inhibitory properties of calpain inhibitors are tested in 100 μl of a buffer containing 100 mM imidazole pH 7.5, 5 mM L-Cystein-HCl, 5 mM CaCl2, 250 μM of the calpain fluorogenic substrate Suc-Leu-Tyr-AMC (Sigma) (Sasaki et al., J. Biol. Chem., 1984, 259, 12489-12949) dissolved in 2.5 μl DMSO and 0.5 μg of human μ-calpain (Calbiochem). The inhibitors dissolved in 1 μl DMSO are added to the reaction buffer. The fluorescence of the cleavage product 7-amino-4-methylcoumarin (AMC) is followed in a SPECTRAmax GEMINI XS (Molecular Device) fluorimeter at λex=360 nm and λem=440 nm at 30° C. during 30 min at intervals of 30 sec in 96-well plates (Greiner). The initial reaction velocity at different inhibitor concentrations is plotted against the inhibitor concentration and the IC50 values determined graphically.

The next assay deals with T2, 20S Proteasome (Oryctolagus cuniculus, UniProt G1T4Q9).
T2 sequence (G1T4Q9 60-263): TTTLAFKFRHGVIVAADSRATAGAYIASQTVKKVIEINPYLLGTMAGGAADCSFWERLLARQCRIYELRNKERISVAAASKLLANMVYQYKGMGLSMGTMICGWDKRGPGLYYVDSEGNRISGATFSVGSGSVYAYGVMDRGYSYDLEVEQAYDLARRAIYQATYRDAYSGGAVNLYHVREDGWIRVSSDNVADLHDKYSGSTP
The assay can be described thus: 20S Proteasome Assay. In kind it is biochemical, Rabbit. The conditions noted are these: read-out: 20S Prot IC50. The procedure: 25 μl of a reaction buffer containing 400 μM of the fluorogenic substrate Suc-Leu-Leu-Val-Tyr-AMC (Bachem) are dispensed per well of a white microtiter plate. Test compounds dissolved in 0.5 μl DMSO are added. To start the reaction; 25 μl of reaction buffer containing 35 ng of enzyme (20S Proteasome, Rabbit, Calbiochem) are added. The increase in fluorescence (excitation at 360 nm; emission at 440 nm) is measured over 30 min at 30° C. at 30″. The IC50's are then determined from the slopes.

Assay [1] has as its system Primary fibroblasts from donors with Friedreich Ataxia (FRDA). Nature of the assay: BSO Assay (cell viability of Friedreich Ataxia fibroblasts under BSO oxidative stress). In kind it is cell-based. The conditions noted are these: Homo sapiens, Fibroblast. The procedure:
Primary fibroblasts were derived from donors with molecular diagnosis for Friedreich Ataxia (FRDA) and control donors with no mitochondrial disease. Cell lines were obtained from Coriell Cell Repositories (Camden, N.J.; catalog numbers GM04078, GM08402 and GM08399 respectively). All cell types were diagnosed on the molecular level for intronic GAA triplet repeat length of at least 400-450 repeats using a PCR-based method. Experiments were carried out as described in the literature (M. L. Jauslin et al., Human Mol. Genet., 2002, 11, 3055-3063): Cells were seeded in microtiter plates at a density of 4′000 cells per 100 μl in growth medium consisting of 25% (v/v) M199 EBS and 64% (v/v) MEM EBS without phenol red (Bioconcept, Allschwil, Switzerland) supplemented with 10% (v/v) fetal calf serum (PAA Laboratories, Linz, Austria), 100 U/ml penicillin, 100 μg/ml streptomycin (PAA Laboratories, Linz, Austria), 10 μg/ml insulin (Sigma, Buchs, Switzerland), 10 ng/ml EGF (Sigma, Buchs, Switzerland), 10 ng/ml bFGF (PreproTech, Rocky Hill, N.J.) and 2 mM glutamine (Sigma, Buchs, Switzerland). The cells were incubated in the presence of various test compounds for 24 h before addition of L-buthionine-(S,R)-sulfoximine (BSO) to a final concentration of 1 mM. Cell viability was measured after the first signs of toxicity appeared in the BSO-treated controls (typically after 16 to 48 h). The cells were stained for 60 min at room temperature in PBS with 1.2 μM calceinAM and 4 μM ethidium homodimer (Live/Dead assay, Molecular Probes, Eugene, Oreg.). Fluorescence intensity was measured with a Gemini Spectramax XS spectrofluorimeter (Molecular Devices, Sunnyvale, Calif.) using excitation and emission wavelengths of 485 nm and 525 nm respectively.

Each structure is given as a SMILES string. pEC50, pIC50: −log10 of the molar value.

Turning to `CCNC(=O)C(=O)[C@H](Cc1ccc(Cl)cc1)NC(=O)[C@@H](NC(=O)[C@H](Cc1ccccc1)NC(=O)CCCCc1cccs1)C(C)C` [Example 1], the negative-log IC50 (pIC50) is 7.35 at human μ-calpain and 6.92 at 20S Proteasome. The same compound gave a pEC50 in assay [1] of 6.15.
The like results for `CCNC(=O)C(=O)C(Cc1ccc(Cl)cc1)NC(=O)C(NC(=O)C(Cc1cccc2ccccc12)NC(=O)CCCCc1cccs1)C(C)C` (stereo not drawn) [Example 22] were, in that order, 6.52, more than 8.00 and 8.00.
The like results for `CCNC(=O)C(=O)C(Cc1ccc(OC)cc1)NC(=O)C(NC(=O)C(CCc1ccccc1)NC(=O)CCc1cccs1)C(C)C` (stereo not drawn) [Example 520] were, in that order, 7.82, 7.64 and more than 9.00.

One may read the pIC50 as −log10 of the IC50, conventionally taken in molar units. By pEC50 is commonly meant the negative decadic logarithm of the EC50, by convention in mol/L.
